Measured values published in patent US20260008754A1, “N-SUBSTITUTED DERIVATIVES OF L-(L-PHENYL-3-ARYL)-LFF-PYRAZOL-4-YL)METHANAININE, METHOD FOR THEIR PRODUCTION AND THEIR APPLICATIONS” (priority 2022, published 2026).

Experiments:
μ opioid receptor [1] = target: T1, μ opioid receptor (Homo sapiens, UniProt P35372); assay: μ opioid receptor agonism, G protein signaling pathway; format: cell-based; settings: for Biased Agonism Selectivity Coefficient k: G protein pathway relative to β arrestin (ratio of the two EC50)
μ opioid receptor [2] = target: T1, μ opioid receptor; assay: μ opioid receptor agonism, β arrestin pathway; format: cell-based
[3] = μ opioid receptor, G protein pathway, read-out: EC50 (G protein)
[4] = μ opioid receptor, β arrestin pathway, read-out: EC50 (β arrestin)

T1 sequence (P35372 whole entry, species assumed): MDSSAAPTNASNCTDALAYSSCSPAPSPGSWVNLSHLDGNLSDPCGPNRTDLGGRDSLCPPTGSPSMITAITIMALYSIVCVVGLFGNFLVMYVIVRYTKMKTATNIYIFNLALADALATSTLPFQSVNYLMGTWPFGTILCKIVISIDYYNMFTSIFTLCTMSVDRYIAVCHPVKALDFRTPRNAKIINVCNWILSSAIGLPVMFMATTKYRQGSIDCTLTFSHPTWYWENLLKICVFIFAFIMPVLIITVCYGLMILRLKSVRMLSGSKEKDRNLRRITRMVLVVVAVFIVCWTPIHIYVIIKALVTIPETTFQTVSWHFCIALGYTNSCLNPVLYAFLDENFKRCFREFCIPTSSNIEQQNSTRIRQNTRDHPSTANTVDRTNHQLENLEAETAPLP

Compound | Biased Agonism Selectivity Coefficient k (μ opioid receptor [1]) | EC50 (μ opioid receptor [1]; [3]) [nM] | EC50 (μ opioid receptor [2]; [4]) [nM] | EC50 (μ opioid receptor [1]) [nM] | EC50 (μ opioid receptor [2]) [nM]
c1ccc(-n2cc(CNCc3ccc4occc4c3)c(-c3ccncc3)n2)cc1 [Compound 3] | 157.9 | 1.24 | 195 |  | 
CCCNC(=O)c1cccc(CNCc2cn(-c3ccccc3)nc2-c2ccncc2)c1 [Compound 1] | 26.7 |  |  | 704 | 18800
CCCNC(=O)c1cccc(CNCc2cn(-c3ccccc3)nc2-c2ccccc2)c1 [Compound 2] | 34.8 |  |  | 146 | 5060
c1ccc(-n2cc(CNCCn3cccn3)c(-c3ccncc3)n2)cc1 [Compound 15] |  |  |  | 3100 | 
c1ccc(-n2cc(CNCc3ccc4c(c3)OCO4)c(-c3ccncc3)n2)cc1 [Compound 12] | 2228.6 | 10.5 | 23400 |  | 
CCCOC(=O)c1cccc(CNCc2cn(-c3ccccc3)nc2-c2ccccc2)c1 [Compound 8] | 11.3 |  |  | 6450 | 569
Cc1cc(C)n2c(CNCc3cn(-c4ccccc4)nc3-c3ccccc3)cnc2n1 [Compound 6] |  |  |  | 2190 | 
CCOC(=O)c1cccc(CNCc2cn(-c3ccccc3)nc2-c2ccccc2)c1 [Compound 10] | 7.6 |  |  | 13900 | 1830
CCOC(=O)c1cccc(CNCc2cn(-c3ccccc3)nc2-c2ccncc2)c1 [Compound 11] | 9.3 |  |  | 7220 | 67500
CC(C)Oc1ccc(CNCc2cn(-c3ccccc3)nc2-c2ccncc2)cc1 [Compound 14] |  |  |  | 521 | 
c1ccc(-c2nn(-c3ccccc3)cc2CNCc2ccc3occc3c2)cc1 [Compound 4] | 32.8 |  |  | 139 | 4570
CCCOC(=O)c1cccc(CNCc2cn(-c3ccccc3)nc2-c2ccncc2)c1 [Compound 9] | 13.6 |  |  | 22200 | 1630
c1ccc(-n2cc(CNCc3ccc4c(c3)CCO4)c(-c3ccncc3)n2)cc1 [Compound 13] | 940.9 | 6.26 | 5890 |  | 
